Measured values taken from patent US9617244B2, “Antibacterial quinoline derivatives” (JANSSEN PHARMACEUTICA NV, priority 2012, dated 2017).
Converted amounts (≈) assume the structure as drawn.

Assays:
[1] = system: Staphylococcus aureus (ATCC29213); test: In-vitro anti-bacterial activity, microtitre plate assay, IC90 determination (non-mycobacterial strains); type: cell-based; settings: 90% inhibitory concentration for bacterial growth, resazurin fluorescence; for IC90 STA B29213: 24 hours; for IC90: Staphylococcus aureus, ATCC29213, 24 h, read-out: IC90 STA B29213
Protocol: D.2. In-Vitro Method for Testing Compounds for Anti-Bacterial Activity Against Various Non-Mycobacterial Strains
Preparation of Bacterial Suspensions for Susceptibility Testing:
The bacteria used in this study were grown overnight in flasks containing 100 ml Mueller-Hinton Broth (Becton Dickinson—cat. no. 275730) in sterile de-ionized water, with shaking, at 37° C. Stocks (0.5 ml/tube) were stored at −70° C. until use. Bacteria titrations were performed in microtiter plates to detect the TCID50, in which TCID50 represents the dilution that gives rise to bacterial growth in 50% of inoculated cultures. In general, an inoculum level of approximately 100 TCID50 was used for susceptibility testing.
Anti Bacterial Susceptibility Testing: IC90 Determination
Flat-bottom, sterile 96-well plastic microtiter plates were filled with 180 μl of sterile deionized water, supplemented with 0.25% BSA. Subsequently, stock solutions (7.8× final test concentration) of compounds were added in 45 μl volumes in column 2 Serial five-fold dilutions (45 μl in 180 μl) were made directly in the microtiter plates from column 2 to reach column 11. Untreated control samples with (column 1) and without (column 12) inoculum were included in each microtiter plate. Depending on the bacteria type, approximately 10 to 60 CFU per well of bacteria inoculum (100 TCID50), in a volume of 100 μl in 2.8× Mueller-Hinton broth medium, was added to the rows A to H, except column 12. The same volume of broth medium without inoculum was added to column 12 in row A to H. The cultures were incubated at 37° C. for 24 hours under a normal atmosphere (incubator with open air valve and continuous ventilation). At the end of incubation, one day after inoculation, the bacterial growth was quantitated fluorometrically. Therefore resazurin (0.6 mg/ml) was added in a volume of 20 μl to all wells 3 hours after inoculation, and the plates were re-incubated overnight. A change in colour from blue to pink indicated the growth of bacteria. The fluorescence was read in a computer-controlled fluorometer (Cytofluor Biosearch) at an excitation wavelength of 530 nm and an emission wavelength of 590 nm. The % growth inhibition achieved by the compounds was calculated according to standard methods. The IC90 (expressed in μg/ml) was defined as the 90% inhibitory concentration for bacterial growth.

[2] = system: Mycobacterium smegmatis (ATCC607); test: In-vitro anti-bacterial activity against strain M. Smegmatis ATCC607; type: cell-based; settings: 90% inhibitory concentration for bacterial growth, Alamar Blue fluorescence; for IC90 MSM 607: 48 hours; for IC90: Mycolicibacterium smegmatis, ATCC607, 48 h, read-out: IC90 MSM 607
Protocol: D.1. In-Vitro Method for Testing Compounds for Anti-Bacterial Activity Against Strain M. Smegmatis ATCC607
Flat-bottom, sterile 96-well plastic microtiter plates were filled with 180 μl of sterile deionized water, supplemented with 0.25% BSA. Subsequently, stock solutions (7.8× final test concentration) of compounds were added in 45 μl volumes to a series of duplicate wells in column 2 so as to allow evaluation of their effects on bacterial growth. Serial five-fold dilutions (45 μl in 180 μl) were made directly in the microtiter plates from column 2 to 11 using a customised robot system (Zymark Corp., Hopkinton, Mass.). Pipette tips were changed after every 3 dilutions to minimize pipetting errors with high hydrophobic compounds. Untreated control samples with (column 1) and without (column 12) inoculum were included in each microtiter plate. Approximately 250 CFU per well of bacteria inoculum, in a volume of 100 μl in 2.8× Mueller-Hinton broth medium, was added to the rows A to H, except column 12. The same volume of broth medium without inoculum was added to column 12 in row A to H. The cultures were incubated at 37° C. for 48 hours in a humidified 5% CO2 atmosphere (incubator with open air valve and continuous ventilation). At the end of incubation, two days after inoculation, the bacterial growth was quantitated fluorometrically. Therefore Alamar Blue (10×) was added to all wells in a volume of 20 μl and plates were incubated for another 2 hours at […]
The fluorescence was read in a computer-controlled fluorometer (Cytofluor, Biosearch) at an excitation wavelength of 530 nm and an emission wavelength of 590 nm (gain 30). The percentage growth inhibition achieved by the compounds was calculated according to standard methods and expressed as IC90 (μg/ml) which defines the 90% inhibitory concentration for bacterial growth.

Row | IC90 STA B29213 [1] | IC90 MSM 607 [2] | IC90 [1] | IC90 [2] | SMILES
1 | 3.32 µg/mL (≈ 6.32 µM) | 1.66 µg/mL (≈ 3.16 µM) |  |  | COc1nc2ccc(Cl)cc2cc1C(c1ccc(Cl)cc1)C1(O)CCNC(c2ccc(F)cc2C)C1 (single isomer, unassigned) [Compound 1]
2 | 2.63 µg/mL (≈ 5.01 µM) | 2.09 µg/mL (≈ 3.98 µM) |  |  | COc1nc2ccc(Cl)cc2cc1C(c1ccc(Cl)cc1)C1(O)CCNC(c2ccc(F)cc2C)C1 (single isomer, unassigned) [Compound 4]
3 |  |  | 14.9 µg/mL (≈ 29.4 µM) | 7.47 µg/mL (≈ 14.7 µM) | COc1nc2ccc(Br)cc2cc1C(n1cccn1)[C@@]1(O)CCN[C@H](Cc2ccccc2)C1 (stereo in doubt) [Compound 67]
4 | >15.22 µg/mL | >15.22 µg/mL |  |  | CS(=O)(=O)c1ccc2[nH]c(=O)c(C(c3ccc(Cl)cc3)C3(O)CCN[C@@H](Cc4ccc(F)c(F)c4)C3)cc2c1 (stereo in doubt) [Compound 205]
5 | >15.08 µg/mL | >15.08 µg/mL |  |  | CS(=O)(=O)c1ccc2[nH]c(=O)c(C(c3ccc(Cl)cc3)C3(O)CCN[C@@H](Cc4ccc(F)c(F)c4)C3)cc2c1 (stereo in doubt) [Compound 206]
6 | 3.83 µg/mL (≈ 6.68 µM) | 3.83 µg/mL (≈ 6.68 µM) |  |  | CS(=O)(=O)c1ccc2[nH]c(=O)c(C(c3ccc(Cl)cc3)C3(O)CCN[C@@H](Cc4ccc(F)c(F)c4)C3)cc2c1 (stereo in doubt) [Compound 207]
7 | 7.60 µg/mL (≈ 13.3 µM) | 9.57 µg/mL (≈ 16.7 µM) |  |  | CS(=O)(=O)c1ccc2[nH]c(=O)c(C(c3ccc(Cl)cc3)C3(O)CCN[C@@H](Cc4ccc(F)c(F)c4)C3)cc2c1 (stereo in doubt) [Compound 208]
8 | 1.67 µg/mL (≈ 3.38 µM) | 1.67 µg/mL (≈ 3.38 µM) |  |  | O=c1[nH]c2ccc(Cl)cc2cc1C(c1ccc(Cl)cc1)C1(O)CCNC(Cc2ccccc2)C1 (stereo not shown) [Compound 5]
9 | 1.83 µg/mL (≈ 3.36 µM) | 9.18 µg/mL (≈ 16.9 µM) |  |  | O=c1[nH]c2ccc(Br)cc2cc1C(c1ccc(Cl)cc1)C1(O)CCNC(CC2CCCCC2)C1 (stereo not shown) [Compound 6]
10 | 1.49 µg/mL (≈ 2.68 µM) | 0.94 µg/mL (≈ 1.69 µM) |  |  | Cc1cc(F)ccc1C1CC(O)(C(c2ccc(Cl)cc2)c2cc3cc(Br)ccc3[nH]c2=O)CCN1 (stereo not shown) [Compound 7]
11 |  |  | > 10.4 µg/mL | > 10.4 µg/mL | COc1nc2ccccc2cc1C(c1ccc(Cl)cc1)C1(O)CCNC(CO)C1 (stereo not shown) [Compound 10]
12 | 6.74 µg/mL (≈ 12.6 µM) | 3.79 µg/mL (≈ 7.08 µM) |  |  | COc1nc2ccc(F)cc2cc1C(c1ccc(Cl)cc1)C1(O)CCN(C(C)c2ccccc2)C(CO)C1 (stereo not shown) [Compound 14]
13 |  |  | 7.21 µg/mL (≈ 15.8 µM) | 9.08 µg/mL (≈ 19.9 µM) | COc1nc2ccccc2cc1C(c1ccccc1)C1(O)CCNC(c2ccc(F)cc2C)C1 (stereo not shown) [Compound 16]
14 |  |  | 20 µg/mL (≈ 35.3 µM) | 10 µg/mL (≈ 17.7 µM) | COc1nc2ccc(Br)cc2cc1C(c1ccc(Cl)cc1)C1(O)CCN(C)C(Cc2ccccc2)C1 (stereo not shown) [Compound 18]
15 |  |  | 5.95 µg/mL (≈ 12.6 µM) | 3.76 µg/mL (≈ 7.95 µM) | COc1nc2ccccc2cc1C(c1ccc(Cl)cc1)C1(O)CCNC(Cc2ccccc2)C1 (stereo not shown) [Compound 19]
16 |  |  | > 15 µg/mL | > 15 µg/mL | COc1nc2ccc(Cl)cc2cc1C(c1ccc(Cl)cc1)C1(O)CCN(C(C)c2ccccc2)C(c2cccnc2)C1 (stereo not shown) [Compound 22]
17 | >19.87 µg/mL |  |  | > 19.9 µg/mL | COc1nc2ccc(Br)cc2cc1C(c1ccc(Cl)cc1)C1(O)CCN(Cc2ccccc2)CC1C (stereo not shown) [Compound 25]
18 | >44.79 µg/mL |  |  |  | COc1nc2ccc(Br)cc2cc1C(c1ccc(Cl)cc1)C1(O)CCN(Cc2ccccc2)CC1C (stereo not shown) [Compound 26]
19 |  |  | 11.6 µg/mL (≈ 25.1 µM) | 7.29 µg/mL (≈ 15.8 µM) | COc1nc2ccccc2cc1C(c1ccc(Cl)cc1)C1(O)CCNC(c2cccnc2)C1 (stereo not shown) [Compound 27]
20 | 6.22 µg/mL (≈ 12.6 µM) | 3.12 µg/mL (≈ 6.31 µM) |  |  | COc1nc2ccc(Cl)cc2cc1C(c1ccc(Cl)cc1)C1(O)CCNC(c2cccnc2)C1 (stereo not shown) [Compound 28]

Row | IC90 STA B29213 [1] | IC90 MSM 607 [2] | IC90 [1] | IC90 [2] | SMILES
21 | 3.48 µg/mL (≈ 6.31 µM) | 1.56 µg/mL (≈ 2.83 µM) |  |  | COc1nc2ccc(Br)cc2cc1C(c1ccc(Cl)cc1)C1(O)CCNC(Cc2ccccc2)C1 (stereo not shown) [Compound 32]
22 | 7.34 µg/mL (≈ 13.2 µM) | 2.60 µg/mL (≈ 4.68 µM) |  |  | Cc1cc(F)ccc1C1CC(O)(C(c2cccc(Cl)c2)c2cc3cc(S(C)(=O)=O)ccc3[nH]c2=O)CCN1 (stereo not shown) [Compound 42]
23 | 3.48 µg/mL (≈ 6.67 µM) | 3.48 µg/mL (≈ 6.67 µM) |  |  | Cc1cc(F)ccc1C1CC(O)(C(c2ccccc2)c2cc3cc(Br)ccc3[nH]c2=O)CCN1 (stereo not shown) [Compound 43]
24 | 0.90 µg/mL (≈ 1.58 µM) | 0.72 µg/mL (≈ 1.26 µM) |  |  | COc1nc2ccc(Br)cc2cc1C(c1ccc(Cl)cc1)C1(O)CCNCC1Cc1cccc(F)c1 (stereo not shown) [Compound 48]
25 |  | 1.79 µg/mL (≈ 3.22 µM) | 2.25 µg/mL (≈ 4.05 µM) |  | O=c1[nH]c2ccc(Br)cc2cc1C(c1ccc(Cl)cc1)C1(O)CCNCC1Cc1cccc(F)c1 (stereo not shown) [Compound 49]
26 |  |  | 1.15 µg/mL (≈ 2.07 µM) | 1.15 µg/mL (≈ 2.07 µM) | COc1nc2ccc(SC)cc2cc1C(c1cccc(Cl)c1)C1(O)CCNC(Cc2ccc(F)cc2F)C1 (stereo not shown) [Compound 50]
27 | 2.34 µg/mL (≈ 3.98 µM) | 1.17 µg/mL (≈ 1.99 µM) |  |  | COc1nc2ccc(Br)cc2cc1C(c1ccc(Cl)cc1)C1(O)CCNC(Cc2ccc(F)cc2F)C1 (stereo not shown) [Compound 51]
28 | 3.54 µg/mL (≈ 7.21 µM) | 1.77 µg/mL (≈ 3.6 µM) |  |  | COc1nc2ccc(F)cc2cc1C(c1ccc(Cl)cc1)C1(O)CCNC(Cc2ccccc2)C1 (stereo not shown) [Compound 54]
29 | 6.19 µg/mL (≈ 12.6 µM) | 3.90 µg/mL (≈ 7.94 µM) |  |  | COc1nc2ccc(F)cc2cc1C(c1ccc(Cl)cc1)C1(O)CCNC(Cc2ccccc2)C1 (stereo not shown) [Compound 55]
30 | 3.50 µg/mL (≈ 6.31 µM) | 3.50 µg/mL (≈ 6.31 µM) |  |  | CS(=O)(=O)c1ccc2[nH]c(=O)c(C(c3ccc(Cl)cc3)C3(O)CCNC(Cc4ccc(F)cc4)C3)cc2c1 (stereo not shown) [Compound 57]
31 | >13.94 µg/mL | >13.94 µg/mL |  |  | CS(=O)(=O)c1ccc2[nH]c(=O)c(C(c3ccc(Cl)cc3)C3(O)CCNC(Cc4ccc(F)cc4)C3)cc2c1 (stereo not shown) [Compound 58]
32 | 6.99 µg/mL (≈ 12.6 µM) | 5.55 µg/mL (≈ 10 µM) |  |  | CS(=O)(=O)c1ccc2[nH]c(=O)c(C(c3ccc(Cl)cc3)C3(O)CCNC(Cc4ccc(F)cc4)C3)cc2c1 (stereo not shown) [Compound 59]
33 | 7.93 µg/mL (≈ 15.8 µM) | 3.98 µg/mL (≈ 7.92 µM) |  |  | CCCN(C)CC1CC(O)(C(c2ccc(Cl)cc2)c2cc3cc(Cl)ccc3nc2OC)CCN1 (stereo not shown) [Compound 64]
34 |  |  | 4.11 µg/mL (≈ 7.94 µM) |  | COc1nc2ccc(Br)cc2cc1C(c1ccccc1)C1(O)CCNC(Cc2ccccc2)C1 (stereo not shown) [Compound 72]
35 | 5.49 µg/mL (≈ 9.95 µM) | 4.36 µg/mL (≈ 7.9 µM) |  |  | COc1nc2ccc(Br)cc2cc1C(c1ccc(Cl)cc1)C1(O)CCNC(Cc2ccccc2)C1 (stereo not shown) [Compound 77]
36 |  |  | 4.37 µg/mL (≈ 7.94 µM) |  | COc1nc2ccc(-c3cccnc3)cc2cc1C(c1ccc(Cl)cc1)C1(O)CCNC(Cc2ccccc2)C1 (stereo not shown) [Compound 80]
37 |  | 9.21 µg/mL (≈ 19.9 µM) |  |  | CC1CC(O)(C(c2ccc(Cl)cc2)c2cc3cc(Br)ccc3[nH]c2=O)CCN1 (stereo not shown) [Compound 132]
38 | 13.44 µg/mL (≈ 25.1 µM) |  |  |  | COc1nc2ccc(F)cc2cc1C(c1ccc(Cl)cc1)C1(O)CCN(C(C)c2ccccc2)C(CO)C1 (stereo not shown) [Compound 437]
39 | 8.61 µg/mL (≈ 15.8 µM) |  |  |  | COc1nc2ccc(Cl)cc2cc1C(c1ccc(Cl)cc1)C1(O)CCNC(c2ccc3ccccc3c2)C1 (stereo not shown) [Compound 440]
40 | 12.17 µg/mL (≈ 22.4 µM) |  |  |  | COc1nc2ccc(Cl)cc2cc1C(c1ccc(Cl)cc1)C1(O)CCNC(c2ccc3ccccc3c2)C1 (stereo not shown) [Compound 441]
